Test results as given in PubChem BioAssay AID258 (DTP/NCI, 2004).
“And” between values parts separate entries of the source, which are not always exact repeats. Equal entries are not always repeated. Inconclusive results and toxic doses are left out.

System: CD2F1 mice, L1210 leukemia sc, survival T/C
Assay: NCI In Vivo Anticancer Drug Screen. Data for tumor model L1210 Leukemia (subcutaneous) in CD2F1 (CDF1) mice
Conditions: endpoint: median survival time, higher = longer survival
Summary of the method: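 T/C ratio: treated-group survival or tumor size over vehicle-control group measurement, in mice carrying transplanted tumors.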

Compound: O=NN(CCCl)C(=O)NC1CCCCC1
- T/C (dose: 0.5 mg/kg/injection, schedule: Q01DX009 (ip), vehicle: saline + alcohol): 98 % of control
- T/C (dose: 0.5 mg/kg/injection, schedule: Q01DX009 (sc), vehicle: saline + alcohol): 101 % of control and 106 % of control
- T/C (dose: 1.0 mg/kg/injection, schedule: Q01DX009 (ip), vehicle: saline + alcohol): 101 % of control
- T/C (dose: 1.0 mg/kg/injection, schedule: Q01DX009 (sc), vehicle: saline + alcohol): 105 % of control and 114 % of control
- T/C (dose: 2.0 mg/kg/injection, schedule: Q01DX009 (sc), vehicle: saline + alcohol): 119 % of control
- T/C (dose: 3.0 mg/kg/injection, schedule: Q01DX Z (iv), vehicle: carboxymethylcellulose (CMC)): 105 % of control and 112 % of control
- T/C (dose: 3.0 mg/kg/injection, schedule: Q01DX Z (oral), vehicle: carboxymethylcellulose (CMC)): 162 % of control
- T/C (dose: 3.0 mg/kg/injection, schedule: Q01DX Z (sc), vehicle: carboxymethylcellulose (CMC)): 118 % of control
- T/C (dose: 4.0 mg/kg/injection, schedule: Q01DX009 (ip), vehicle: saline + alcohol): 178 % of control and 186 % of control
- T/C (dose: 5.0 mg/kg/injection, schedule: Q01DX Z (ip), vehicle: carboxymethylcellulose (CMC)): 177 % of control and 181 % of control
- T/C (dose: 5.0 mg/kg/injection, schedule: Q01DX Z (iv), vehicle: carboxymethylcellulose (CMC)): 294 % of control
- T/C (dose: 5.0 mg/kg/injection, schedule: Q01DX Z (oral), vehicle: carboxymethylcellulose (CMC)): 493 % of control
- T/C (dose: 5.0 mg/kg/injection, schedule: Q01DX Z (sc), vehicle: carboxymethylcellulose (CMC)): 112 % of control and 155 % of control and 287 % of control
- T/C (dose: 5.36 mg/kg/injection, schedule: Q01DX009 (sc), vehicle: saline + alcohol): 323 % of control
- T/C (dose: 8.0 mg/kg/injection, schedule: Q01DX009 (ip), vehicle: saline + alcohol): 234 % of control and 261 % of control
- T/C (dose: 8.4 mg/kg/injection, schedule: Q01DX Z (ip), vehicle: carboxymethylcellulose (CMC)): 381 % of control and 383 % of control
- T/C (dose: 8.4 mg/kg/injection, schedule: Q01DX Z (iv), vehicle: carboxymethylcellulose (CMC)): 225 % of control and 261 % of control
- T/C (dose: 8.4 mg/kg/injection, schedule: Q01DX Z (oral), vehicle: carboxymethylcellulose (CMC)): 412 % of control
- T/C (dose: 8.4 mg/kg/injection, schedule: Q01DX Z (sc), vehicle: carboxymethylcellulose (CMC)): 106 % of control and 237 % of control and 300 % of control
- T/C (dose: 10.7 mg/kg/injection, schedule: Q01DX009 (ip), vehicle: saline + alcohol): 337 % of control
- T/C (dose: 10.7 mg/kg/injection, schedule: Q01DX009 (sc), vehicle: saline + alcohol): 378 % of control
- T/C (dose: 12.0 mg/kg/injection, schedule: Q01DX009 (sc), vehicle: saline + alcohol): 325 % of control
- T/C (dose: 14.0 mg/kg/injection, schedule: Q01DX Z (ip), vehicle: carboxymethylcellulose (CMC)): 255 % of control and 387 % of control
- T/C (dose: 14.0 mg/kg/injection, schedule: Q01DX Z (iv), vehicle: carboxymethylcellulose (CMC)): 183 % of control and 381 % of control
- T/C (dose: 14.0 mg/kg/injection, schedule: Q01DX Z (oral), vehicle: carboxymethylcellulose (CMC)): 255 % of control and 300 % of control
- T/C (dose: 14.0 mg/kg/injection, schedule: Q07DX Z (sc), vehicle: carboxymethylcellulose (CMC)): 112 % of control
- T/C (dose: 15.0 mg/kg/injection, schedule: Q01DX009 (ip), vehicle: Klucel (hydroxypropylcellulose) (HPC)): 220 % of control
- T/C (dose: 16.0 mg/kg/injection, schedule: Q01DX009 (ip), vehicle: saline + alcohol): 306 % of control and 340 % of control
- T/C (dose: 16.0 mg/kg/injection, schedule: Q01DX009 (sc), vehicle: saline + alcohol): 271 % of control and 284 % of control and 348 % of control
- T/C (dose: 23.0 mg/kg/injection, schedule: Q01DX Z (ip), vehicle: carboxymethylcellulose (CMC)): 177 % of control and 268 % of control
- T/C (dose: 23.0 mg/kg/injection, schedule: Q01DX Z (iv), vehicle: carboxymethylcellulose (CMC)): 155 % of control and 368 % of control
- T/C (dose: 23.0 mg/kg/injection, schedule: Q01DX Z (oral), vehicle: carboxymethylcellulose (CMC)): 212 % of control and 222 % of control
- T/C (dose: 23.0 mg/kg/injection, schedule: Q01DX Z (sc), vehicle: carboxymethylcellulose (CMC)): 156 % of control and 211 % of control and 268 % of control
- T/C (dose: 23.0 mg/kg/injection, schedule: Q07DX Z (sc), vehicle: carboxymethylcellulose (CMC)): 118 % of control
- T/C (dose: 24.0 mg/kg/injection, schedule: Q01DX009 (ip), vehicle: saline + alcohol): 184 % of control
- T/C (dose: 24.0 mg/kg/injection, schedule: Q01DX009 (sc), vehicle: saline + alcohol): 219 % of control
- T/C (dose: 30.0 mg/kg/injection, schedule: Q01DX009 (ip), vehicle: Klucel (hydroxypropylcellulose) (HPC)): 275 % of control
- T/C (dose: 32.0 mg/kg/injection, schedule: Q01DX009 (sc), vehicle: saline + alcohol): 173 % of control
- T/C (dose: 39.0 mg/kg/injection, schedule: Q01DX Z (oral), vehicle: carboxymethylcellulose (CMC)): 161 % of control
- T/C (dose: 39.0 mg/kg/injection, schedule: Q01DX Z (sc), vehicle: carboxymethylcellulose (CMC)): 312 % of control
- T/C (dose: 64.0 mg/kg/injection, schedule: Q01DX009 (ip), vehicle: saline + alcohol): 95 % of control
- T/C (dose: 64.0 mg/kg/injection, schedule: Q01DX009 (sc), vehicle: saline + alcohol): 107 % of control and 120 % of control
- T/C (dose: 65.0 mg/kg/injection, schedule: Q01DX001 (sc), vehicle: carboxymethylcellulose (CMC)): 200 % of control
- T/C (dose: 65.0 mg/kg/injection, schedule: Q01DX Z (sc), vehicle: carboxymethylcellulose (CMC)): 237 % of control
- T/C (dose: 65.0 mg/kg/injection, schedule: Q07DX Z (sc), vehicle: carboxymethylcellulose (CMC)): 475 % of control
- T/C (dose: 108.0 mg/kg/injection, schedule: Q01DX001 (sc), vehicle: carboxymethylcellulose (CMC)): 193 % of control
- T/C (dose: 108.0 mg/kg/injection, schedule: Q01DX Z (oral), vehicle: carboxymethylcellulose (CMC)): 122 % of control
- T/C (dose: 108.0 mg/kg/injection, schedule: Q07DX Z (sc), vehicle: carboxymethylcellulose (CMC)): 250 % of control
- T/C (dose: 180.0 mg/kg/injection, schedule: Q01DX001 (sc), vehicle: carboxymethylcellulose (CMC)): 362 % of control
- T/C (dose: 180.0 mg/kg/injection, schedule: Q01DX Z (oral), vehicle: carboxymethylcellulose (CMC)): 116 % of control
- T/C (dose: 180.0 mg/kg/injection, schedule: Q07DX Z (sc), vehicle: carboxymethylcellulose (CMC)): 193 % of control
- T/C (dose: 300.0 mg/kg/injection, schedule: Q01DX001 (sc), vehicle: carboxymethylcellulose (CMC)): 243 % of control
